In patent publication US20030180292A1, “Treatment of B cell malignancies using anti-CD40L antibodies in combination with anti-CD20 antibodies and/or chemotherapeutics and radiotherapy” (IDEC PHARMACEUTICALS, priority 2002, published 2003):

What was measured:
DHL-4 cells = assay: Adriamycin (ADM) cytotoxicity of DHL-4 cells with sCD40L and IDEC-131, Alamar Blue assay; assay type: cell-based; settings: 5 days
Method: Initially, the minimum concentration of ADM cytotoxic to DHL-4 cells was determined by exposing DHL-4 cells for 4 hours to different concentrations of ADM. The cell cytotoxicity of DHL-4 cells after 5 days in culture was measured by Alamar Blue, a dye-reduction assay by live cells (see Gazzano-Santoro et al., J. Immunol. Meth. 202: 163-171 (1997)). Briefly, 1×10^5 DHL-4 cells in growth medium (RMPI-1640 plus 10% Fetal Calf Serum) were incubated with varying concentrations of ADM (1×10^−6 M to 1×10^−8 M) in cell culture tubes at 37° C. for 4 hours. […] Following incubation, plates were cooled by incubating at room temperature for 10 minutes on a shaker, and the intracellular reduction of the dye was determined. Fluorescence was read using a 96-well fluorometer with excitation at 530 nm and emission at 590 nm. The results are expressed as relative fluorescence units (RFU). The percentage of cytotoxicity was calculated as follows: […]
DHL-4 cells (0.5×10^6 cells/ml) were incubated in the presence of 10 μg/ml of soluble CD40L (sCD40L, P. A. Brams, E. A. Padlan, K. Hariharan, K. Slater, J. Leonard, R. Noelle, and R. Newman, “A humanized anti-human CD154 monoclonal antibody blocks CD154-CD40 mediated human B cell activation,” (manuscript submitted)) for 1 hour at 37° C. […] After 5 days, the cytotoxicity was measured by Alamar Blue dye-uptake assay, as described.

B-CLL cells [1] = assay: Survival of B-CLL cells in culture, Trypan blue dye exclusion; assay type: cell-based, human; settings: for % Viability (+) CD40L: sCD40L 5 μg/ml
Method: Peripheral blood mononuclear cells (PBMC) were isolated from a CLL patient's blood using a Ficoll-Hypaque gradient centrifulation. Viability was determined by Tryan blue dye exclusion and was >98%. […] CLL cells (PBMC) were cultured in CLL growth medium (e.g. RPMI-1640 medium supplemented with 5% FCS or 2% of autologous donor plasma, supplemented with 2 mM L-Glutamine and 100 U/ml Penicillin-Streptomycin). In addition. for some experiments, CD19^+ B-cells were purified using CD19^+ Dynabeads™ as per manufacture's instructions (Dynal, Cat. #111.03/111.04) and cultured as above. CLL or purified B-CLL cells cultured in growth medium mostly under went spontaneous apoptotic cell death. […] Table II indicates the cell viability of CD19^+ B-CLL cells grown in the presence or absence of sCD40L (5 μg/ml) at different time points and indicates the longer survival of CLL cells. B-CLL cells from Patient #1 cultured with sCD40L had ≧60% viability for greater than 2 weeks, whereas cells grown in the absence of sCD40L had less than 10% viability.

B-CLL cells [2] = assay: Growth and survival of B-CLL cells after 7 days in culture, Alamar Blue assay; assay type: cell-based, human; settings: cultures with sCD40L
Method: Cells in one tube were mixed with sCD40L (5 μl/ml) in equal volume of growth medium, whereas the other tube was incubated with equal volume of growth medium as control. […] Seven days later, cell survival/death in culture was determined by Alamar Blue assay, as described above.

[3] = tested on: HLA-DR expression on CD19+ CLL cells; assay: HLA-DR expression on CD19+ CLL cells by flow cytometry; assay type: cell-based, human; settings: for HLA-DR+ % Positive / HLA-DR+ MFI: CD19+ B-cells, 5 μg/ml CD40L
Method: To determine whether the CD40L-CD40 signal transduction pathway is intact, CLL cells from CLL patients were cultured (5×10^5 cells/ml) with and without 5 μg/ml of CD40L at 37° C. At 48 hours and 144 hours, the class II molecule, HLA-DR expression, was determined on […] cells by flow cytometry using standard procedures. Briefly, cultured lymphocytes were harvested at different time points and analyzed for surface expression of molecules using antibodies coupled to either fluorescein (FITC) or phycoerythrin (PE) for single or double staining using a FACScan (Becton-Dickinson) flow cytometer. To stain for flow cytometry, 1×10^6 cells in culture tubes were incubated with appropriate antibodies as follows: anti-CD45-FITC to gate lymphocyte population on a scatter plot; anti-CD19-PE (Pharmingen. Cat. #30655) or anti-CD20-FITC (Pharmingen; Cat. #33264) antibodies to determine the CD19^+ and/or […] B-cells; anti-CD3-FITC antibodies (Pharmingen; Cat. #30104) to gate-off the T cells; anti-CD19-RPE and anti-HLA-DR-FITC antibodies (Pharmingen; Cat. #32384) to determine the Pclass II expression on CD19^+ cells. Cells were washed once by centrifugation (at 200×g, for 6 min.) with 2 ml cold PBS and incubated with antibody for 30 min. on ice, after which the cells washed once, fixed in 0.5% paraformaldehyde and stored at 4° C. until analyzed. Flow cytometry data was acquired on FACsan and analyzed using WinList software (Verity Software House). The machine was set to autogating to allow examination of quadrants containing cells that were single stained with either RPE or FITC, unstained or doubly stained.

Compound: sCD40L: soluble CD40L
- survival of DHL-4 cells after ADM treatment (in words) (DHL-4 cells; sCD40L 10 μg/ml, ADM 2×10^−7 M-4×10^−8 M for 4 hours): prolonged survival
- % Viability (+) CD40L (B-CLL cells [1]; B-CLL Patient #1, 0 Hours): ≧90%
- % Viability (+) CD40L (B-CLL cells [1]; B-CLL Patient #1, 48 Hours): 90%
- % Viability (+) CD40L (B-CLL cells [1]; B-CLL Patient #1, 96 Hours): 77%
- % Viability (+) CD40L (B-CLL cells [1]; B-CLL Patient #1, 144 Hours): 72%
- % Viability (+) CD40L (B-CLL cells [1]; B-CLL Patient #2, 0 Hours): ≧90%
- % Viability (+) CD40L (B-CLL cells [1]; B-CLL Patient #2, 72 Hours): 72%
- % Viability (+) CD40L (B-CLL cells [1]; B-CLL Patient #2, 96 Hours): 65%
- % Viability (+) CD40L (B-CLL cells [1]; B-CLL Patient #2, 144 Hours): 51%
- viability of B-CLL cells cultured with sCD40L (B-CLL cells [1]; Patient #1, for greater than 2 weeks): ≥ 60%
- viability of CLL or purified B-CLL cells in culture (in words) (B-CLL cells [1]; cultured in the presence of sCD40L): extended their viability
- cell survival of B-CLL cells (in words) (B-CLL cells [2]): cell survival
- HLA-DR+ % Positive ([3]; 48 hrs): 88%
- HLA-DR+ MFI ([3]; 48 hrs): 101
- HLA-DR+ % Positive ([3]; 144 hrs): 95%
- HLA-DR+ MFI ([3]; 144 hrs): 2943
- HLA-DR expression on B-CLL cells (in words) ([3]; cultured in the presence of sCD40L vs not): higher level of HLA-DR expression

Compound: COc1cccc2c1C(=O)c1c(O)c3c(c(O)c1C2=O)C[C@@](O)(C(=O)CO)C[C@@H]3O[C@H]1C[C@H](N)[C@H](O)[C@H](C)O1 [ADM, adriamycin]
- cytotoxicity to DHL-4 cells (in words) (DHL-4 cells; exposed to ADM in the absence of sCD40L): increased cytotoxicity
